# Results taken from article PMC3880967, “Isolation of a novel alkaline-stable lipase from a metagenomic library and its specific application for milkfat flavor production” (Microbial Cell Factories, 2014).
# Molecular target: T1, Est_p6 (uncultured bacterium, UniProt D7NJ22)
# T1 construct: predicted signal peptide (residues 1-26) removed, from residue 27 of 357; C-terminal 6xHis tag kept (pET-28a, NcoI/HindIII); E. coli BL21(DE3); Ni-NTA; 36 kDa by SDS-PAGE
# Assay: spectrophotometric pNP release at […] nm, Lineweaver-Burk
# Assay type: biochemical
# Details: 50 mM Tris-HCl pH 8.60, 50°C, 4% ethanol
# T1 sequence (D7NJ22 27-357 limits assumed): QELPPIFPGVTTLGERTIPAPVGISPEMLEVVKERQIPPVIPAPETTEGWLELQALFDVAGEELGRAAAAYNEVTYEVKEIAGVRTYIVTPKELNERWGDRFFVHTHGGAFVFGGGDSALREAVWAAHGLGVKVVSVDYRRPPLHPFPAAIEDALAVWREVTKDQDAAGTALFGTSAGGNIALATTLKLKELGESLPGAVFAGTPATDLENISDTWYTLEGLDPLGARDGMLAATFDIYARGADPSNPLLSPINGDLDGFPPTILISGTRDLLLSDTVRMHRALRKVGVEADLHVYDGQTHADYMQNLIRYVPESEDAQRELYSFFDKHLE
row,Compound,Km [µM]
1,"CC(=O)Oc1ccc([N+](=O)[O-])cc1 [C2, pNP acetate]",2640
2,"CCCC(=O)Oc1ccc([N+](=O)[O-])cc1 [C4, pNP butyrate]",1150
3,"CCCCCCCC(=O)Oc1ccc([N+](=O)[O-])cc1 [C8, pNP caprylate]",322
4,"CCCCCCCCCC(=O)Oc1ccc([N+](=O)[O-])cc1 [C10, pNP caprate]",1280
5,"CCCCCCCCCCCC(=O)Oc1ccc([N+](=O)[O-])cc1 [C12, pNP laurate]",149
